From US10196391B2 (Hoffmann-La Roche Inc., priority 2014, dated 2019)

Tested on: HBsAg
Test: HBsAg assay (CLIA) in HepG2.2.15 cells
Assay type: cell-based, HBV
Settings: Hepatitis B virus, HepG2.2.15, read-out: IC50 (HBsAg assay)
Experimental: HepG2.2.15 cells (Acs et al. Proc Natl Acad Sci USA, 84, (1987), 4641-4), a constitutively HBV-expressing cell line were cultured in DMEM+Glutamax-I medium (Invitrogen, Carlsbad, Calif., USA), supplemented with 10% fetal bovine serum (Invitrogen) and G418 (Invitrogen) at a final concentration of 200 mg/L and maintained in 5% CO2 at 37° C.
HepG2.2.15 cells were seeded in duplicate into white, 96-well plates at 1.5×10^4 cells/well. The cells were treated with a three-fold serial dilution series of the compounds in DMSO. The final DMSO concentration in all wells was 1% and DMSO was used as no drug control.
The HBsAg chemiluminescence immunoassay (CLIA) kit (Autobio Diagnostics Co., Zhengzhou, China, Catalog number: CL0310-2) was used to measure the levels of secreted HBV antigens semi-quantitatively. For the detection 50 μL/well culture supernatant was used and HBsAg was quantified using HBsAg chemiluminescence immunoassay (CLIA) kit (Autobio Diagnostics Co., Zhengzhou, China, Catalog number: CL0310-2), 50 μL of the supernatant was transferred to the CLIA assay plate and 50 μL of enzyme conjugate reagent was added into each well. The plates were sealed and gently agitated for 1 hour at room temperature. The supernatant-enzyme-mixture was discarded and wells were washed 6 times with 300 μL of PBS. The residual liquid was removed by plating the CLIA plate […] on absorbent tissue paper. 25 μL of substrates A and B were added to each well. Luminance was measured using a luminometer (Mithras LB 940 Multimode Microplate Reader) after 10 minutes incubation. Dose-response curves were generated and the IC50 value was extrapolated by using the E-WorkBook Suite (ID Business Solutions Ltd., Guildford, UK). The IC50 was defined as the compound concentration (or conditioned media log dilution) at which HBsAg secretion was reduced by 50% compared to the no drug control.
The compounds according to formula I were tested for their capacity to inhibit HBsAg as described herein.

Row | Compound | IC50 [nM]
1 | C/C=C/c1nc(-c2ccccn2)nc2c1CN(c1ccc(S(C)(=O)=O)cc1)CC2 [Example 84] | 8560
2 | COc1cc(N2CCc3nc(-c4ncccn4)ncc3C2)cc(F)c1C#N [Example 77, 2-fluoro-6-methoxy-4-(2-pyrimidin-2-yl-7,8-dihydro-5H-pyrido[4,3-d]pyrimidin-6-yl)benzonitrile] | 265
3 | CCCOc1ccc(N2CCc3nc(-c4ccccn4)ncc3C2)cc1F [Example 55, 6-(3-fluoro-4-propoxy-phenyl)-2-(2-pyridyl)-7,8-dihydro-5H-pyrido[4,3-d]pyrimidine] | 1180
4 | CS(=O)(=O)c1ccc(N2CCc3nc(-c4ccc(F)cn4)ncc3C2)cc1 [Example 2, 2-(5-fluoro-2-pyridyl)-6-(4-methylsulfonylphenyl)-7,8-dihydro-5H-pyrido[4,3-d]pyrimidine] | 10200
5 | COc1cc(N2CCc3nc(-c4ccccn4)ncc3C2)ccc1Cl [Example 62, 6-(4-chloro-3-methoxy-phenyl)-2-(2-pyridyl)-7,8-dihydro-5H-pyrido[4,3-d]pyrimidine] | 1340
6 | CCOc1cc(N2CCc3nc(-c4ccccn4)ncc3C2)cc(F)c1F [Example 21, 6-(3-ethoxy-4,5-difluoro-phenyl)-2-(2-pyridyl)-7,8-dihydro-5H-pyrido[4,3-d]pyrimidine] | 321
7 | Cc1nc(-c2ccccn2)nc2c1CN(c1ccc(S(C)(=O)=O)cc1)CC2 [Example 87] | 10300
8 | Fc1cc(F)cc(N2CCc3nc(-c4ccccn4)ncc3C2)c1 [Example 13, 6-(3,5-difluorophenyl)-2-(2-pyridyl)-7,8-dihydro-5H-pyrido[4,3-d]pyrimidine] | 1040
9 | COc1cc(N2CCc3nc(-c4ncccn4)ccc3C2)cc(F)c1F [Example 97, 6-(3,4-difluoro-5-methoxy-phenyl)-2-pyrimidin-2-yl-7,8-dihydro-5H-1,6-naphthyridine] | 16400
10 | COc1cc(N2CCc3nc(-c4ccccn4)ncc3C2)ncc1F [Example 71, 6-(5-fluoro-4-methoxy-2-pyridyl)-2-(2-pyridyl)-7,8-dihydro-5H-pyrido[4,3-d]pyrimidine] | 330
11 | CN(C)S(=O)(=O)c1ccc(N2CCc3nc(-c4ccccn4)ncc3C2)cc1 [Example 9, N,N-dimethyl-4-[2-(2-pyridyl)-7,8-dihydro-5H-pyrido[4,3-d]pyrimidin-6-yl]benzenesulfonamide] | 16900
12 | COC(=O)c1cc(Br)ccc1N1CCc2nc(-c3ccccn3)ncc2C1 [Example 16, methyl 5-bromo-2-[2-(2-pyridyl)-7,8-dihydro-5H-pyrido[4,3-d]pyrimidin-6-yl]benzoate] | 13700
13 | COc1cc(N2CCc3nc(-c4cnccn4)ncc3C2)cc(F)c1F [Example 28, 6-(3,4-difluoro-5-methoxy-phenyl)-2-pyrazin-2-yl-7,8-dihydro-5H-pyrido[4,3-d]pyrimidine] | 455
14 | OCCOc1cc(N2CCc3nc(-c4ccccn4)ncc3C2)cc(F)c1F [Example 94, 2-[2,3-difluoro-5-[2-(2-pyridyl)-7,8-dihydro-5H-pyrido[4,3-d]pyrimidin-6-yl]phenoxy]ethanol] | 660
15 | COc1cc(N2CCc3cc(-c4ccccn4)ncc3C2)cc(F)c1F [Example 96, 2-(3,4-difluoro-5-methoxy-phenyl)-6-(2-pyridyl)-3,4-dihydro-1H-2,7-naphthyridine] | 162
16 | COc1cc(F)cc(N2CCc3nc(-c4ccccn4)ncc3C2)c1 [Example 91, 6-(3-fluoro-5-methoxy-phenyl)-2-(2-pyridyl)-7,8-dihydro-5H-pyrido[4,3-d]pyrimidine] | 198
17 | FC(F)Oc1cccc(N2CCc3nc(-c4ncccn4)ncc3C2)c1 [Example 63, 6-[3-(difluoromethoxy)phenyl]-2-pyrimidin-2-yl-7,8-dihydro-5H-pyrido[4,3-d]pyrimidine] | 1940
18 | COc1cc(N2CCc3nc(-c4ncccn4)ncc3C2)cc(Cl)n1 [Example 116, 6-(2-chloro-6-methoxy-4-pyridyl)-2-pyrimidin-2-yl-7,8-dihydro-5H-pyrido[4,3-d]pyrimidine] | 530
19 | Clc1ccc(N2CCc3nc(-c4ccccn4)ncc3C2)cc1 [Example 45, 6-(4-chlorophenyl)-2-(2-pyridyl)-7,8-dihydro-5H-pyrido[4,3-d]pyrimidine] | 3230
20 | CNS(=O)(=O)c1ccc(N2CCc3nc(-c4ccccn4)ncc3C2)cc1 [Example 8, N-methyl-4-[2-(2-pyridyl)-7,8-dihydro-5H-pyrido[4,3-d]pyrimidin-6-yl]benzenesulfonamide] | 4180

Row | Compound | IC50 [nM]
21 | Clc1ccc(N2CCc3nc(-c4ccccn4)ncc3C2)cc1Cl [Example 49, 6-(3,4-dichlorophenyl)-2-(2-pyridyl)-7,8-dihydro-5H-pyrido[4,3-d]pyrimidine] | 1070
22 | CS(=O)(=O)c1ccc(N2CCc3nc(-c4ccccn4)nc(OCc4ccccc4)c3C2)cc1 [Example 83] | 20000
23 | COc1ccc2ccc(N3CCc4nc(-c5ncccn5)ncc4C3)cc2n1 [Example 75, 6-(2-methoxy-7-quinolyl)-2-pyrimidin-2-yl-7,8-dihydro-5H-pyrido[4,3-d]pyrimidine] | 2020
24 | COc1cc(C#N)cc(N2CCc3nc(-c4ncccn4)ncc3C2)c1 [Example 76, 3-methoxy-5-(2-pyrimidin-2-yl-7,8-dihydro-5H-pyrido[4,3-d]pyrimidin-6-yl)benzonitrile] | 1510
25 | c1ccc(-c2ncc3c(n2)CCN(c2ncccn2)C3)nc1 [Example 37, 2-(2-pyridyl)-6-pyrimidin-2-yl-7,8-dihydro-5H-pyrido[4,3-d]pyrimidine] | 4450
26 | Cc1ccc(N2CCc3nc(-c4ccccn4)ncc3C2)cc1 [Example 47, 6-(p-tolyl)-2-(2-pyridyl)-7,8-dihydro-5H-pyrido[4,3-d]pyrimidine] | 11400
27 | Clc1ccc(N2CCc3nc(-c4ccccn4)ncc3C2)nc1 [Example 36, 6-(5-chloro-2-pyridyl)-2-(2-pyridyl)-7,8-dihydro-5H-pyrido[4,3-d]pyrimidine] | 1540
28 | O=C(O)c1ccc(N2CCc3nc(-c4ccccn4)ncc3C2)cc1 [Example 32, 4-[2-(2-pyridyl)-7,8-dihydro-5H-pyrido[4,3-d]pyrimidin-6-yl]benzoic acid] | 9750
29 | COCCOc1cc(N2CCc3nc(-c4ccccn4)ncc3C2)ccc1OC [Example 58, 6-[4-methoxy-3-(2-methoxyethoxy)phenyl]-2-(2-pyridyl)-7,8-dihydro-5H-pyrido[4,3-d]pyrimidine] | 20200
30 | CCOc1cc(N2CCc3nc(-c4ccccn4)ncc3C2)ccc1C(=O)O [Example 66, 2-ethoxy-4-[2-(2-pyridyl)-7,8-dihydro-5H-pyrido[4,3-d]pyrimidin-6-yl]benzoic acid] | 13200
31 | Clc1cc(Cl)nc(N2CCc3nc(-c4ncccn4)ncc3C2)c1 [Example 113, 6-(4,6-dichloro-2-pyridyl)-2-pyrimidin-2-yl-7,8-dihydro-5H-pyrido[4,3-d]pyrimidine] | 161
32 | COc1ccc(N2CCc3nc(-c4ccccn4)ncc3C2)c(F)c1F [Example 61, 6-(2,3-difluoro-4-methoxy-phenyl)-2-(2-pyridyl)-7,8-dihydro-5H-pyrido[4,3-d]pyrimidine] | 3030
33 | NC(=O)c1cc(F)cc(N2CCc3nc(-c4ncccn4)ncc3C2)c1 [Example 105, 3-fluoro-5-(2-pyrimidin-2-yl-7,8-dihydro-5H-pyrido[4,3-d]pyrimidin-6-yl)benzamide] | 18100
34 | CCCCOc1cc(N2CCc3nc(-c4ccccn4)ncc3C2)ccc1C(=O)O [Example 67, 2-butoxy-4-[2-(2-pyridyl)-7,8-dihydro-5H-pyrido[4,3-d]pyrimidin-6-yl]benzoic acid] | 7800
35 | COc1nc(N2CCc3nc(-c4ncccn4)ncc3C2)ccc1F [Example 72, 6-(5-fluoro-6-methoxy-2-pyridyl)-2-pyrimidin-2-yl-7,8-dihydro-5H-pyrido[4,3-d]pyrimidine] | 1430
36 | O=C(NCC(F)(F)F)c1cc(F)cc(N2CCc3nc(-c4ncccn4)ncc3C2)c1 [Example 104, 3-fluoro-5-(2-pyrimidin-2-yl-7,8-dihydro-5H-pyrido[4,3-d]pyrimidin-6-yl)-N-(2,2,2-trifluoroethyl)benzamide] | 1240
37 | COc1cc(F)cc(N2CCc3nc(-c4ncccn4)ncc3C2)c1 [Example 117, 6-(3-fluoro-5-methoxy-phenyl)-2-pyrimidin-2-yl-7,8-dihydro-5H-pyrido[4,3-d]pyrimidine] | 157
38 | CCC1CN(c2ccc(S(C)(=O)=O)cc2)Cc2cnc(-c3ccccn3)nc21 (stereo not drawn) [Example 7, 8-ethyl-6-(4-methylsulfonylphenyl)-2-(2-pyridyl)-7,8-dihydro-5H-pyrido[4,3-d]pyrimidine] | 5170
39 | Cc1ccc(-c2ncc3c(n2)CCN(c2ccc(S(C)(=O)=O)cc2)C3)nc1 [Example 3, 2-(5-methyl-2-pyridyl)-6-(4-methylsulfonylphenyl)-7,8-dihydro-5H-pyrido[4,3-d]pyrimidine] | 9220
